Source: patent US5861405A, “S-substituted 1,3,7-trialkyl-xanthine derivatives” (priority 1994, dated 1999)
Converted amounts (≈) assume the structure as drawn. “And” between values parts separate entries of the source, which are not always exact repeats. Equal values may be shown once. Read-outs that look alike come from different tables or passages of the source. Each block holds one molecule with its values, some of them ahead of it.

What was measured:
[1] = target: A2 receptors, rat striatum; conditions: vs [3H]NECA in rat striatum; read-out: Ki (A2a), Shimada et al.; cited from earlier work
[2] = target: A1 receptors, guinea pig brain; conditions: vs [3H]CHA in guinea pig brain; read-out: Ki (A1), Shimada et al.; cited from earlier work
[3] = target: T1, rat A1 cortical receptors (Rattus norvegicus, UniProt P25099); assay: Radioligand binding, [3H]N6-phenylisopropyladenosine ([3H]PIA), rat cortical A1 receptors
T1 construct: Rat cerebral cortical membranes and striatal membranes were prepared; from tissue; host or cells: rat cerebral cortex membranes
T1 sequence (P25099 1-326): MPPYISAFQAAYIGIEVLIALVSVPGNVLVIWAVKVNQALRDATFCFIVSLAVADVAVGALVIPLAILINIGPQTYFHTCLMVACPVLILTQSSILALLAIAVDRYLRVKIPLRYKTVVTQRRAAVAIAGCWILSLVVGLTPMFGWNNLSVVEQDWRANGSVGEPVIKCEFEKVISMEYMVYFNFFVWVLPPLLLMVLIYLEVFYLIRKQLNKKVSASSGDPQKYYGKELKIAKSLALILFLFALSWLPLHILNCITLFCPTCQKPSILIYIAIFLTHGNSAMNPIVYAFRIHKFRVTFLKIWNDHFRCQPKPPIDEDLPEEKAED

[4] = system: rat brain A2a- vs. A1-receptors; conditions: cited from earlier work
locomotor activity = conditions: cited from earlier work
[5] = target: T2, rat striatal A2a receptors (Rattus norvegicus, UniProt P30543); assay: Radioligand binding, [3H]CGS 21680, rat striatal A2a receptors; set-up: Rat cerebral cortical membranes and striatal membranes were prepared; from tissue; host or cells: rat striatal membranes
A2 receptors, rat brain = conditions: read-out: Ki (A2a), Erickson et al.; cited from earlier work
[6] = target: T3, A1 receptors, guinea pig striatum (Cavia porcellus, UniProt P47745); assay: Competition binding vs [3H]PIA, guinea pig striatal membranes
T3 construct: guinea pig, bovine, and rabbit striatal membranes; tissue Keystone Biologicals; host or cells: guinea pig striatal membranes (frozen brain)

[7] = target: T4, A1 receptors, bovine striatum (Bos taurus, UniProt P28190); assay: Competition binding vs [3H]PIA, bovine striatal membranes
T4 construct: Striatal tissue was isolated by dissection of rabbit, bovine, and rat brain; tissue Pel-Freeze Biologicals Co; host or cells: bovine striatal membranes (frozen brain)

[8] = target: T5, A2a receptors, rat striatum (Rattus norvegicus, UniProt P30543); assay: biochemical
[9] = target: A2a receptors, rabbit striatum (Oryctolagus cuniculus, UniProt G1SVQ2); assay: biochemical
[10] = target: A2a receptors, bovine striatum (Bos taurus, UniProt E1BKU0); assay: biochemical
bovine A2a receptors = bovine A2a receptors (Bos taurus, UniProt E1BKU0); assay: biochemical
rabbit A2a receptors = rabbit A2a receptors (Oryctolagus cuniculus, UniProt G1SVQ2); assay: biochemical
[11] = target: T5, A2a receptors, rat striatum; conditions: four species (rat, guinea pig, bovine, rabbit)
[12] = target: T6, A1 receptors, rabbit striatum (Oryctolagus cuniculus, UniProt P34970); assay: Competition binding vs [3H]PIA, rabbit striatal membranes
T6 construct: Striatal tissue was isolated by dissection of rabbit, bovine, and rat brain; tissue Pel-Freeze Biologicals Co; host or cells: rabbit striatal membranes (frozen brain)

[13] = target: T2, rat striatal A2a receptors; assay: biochemical
[14] = system: A1 receptors, rat striatal membranes; assay: Irreversible inhibition after preincubation and washing, [3H]PIA, rat striatal membranes; format: binding; conditions: preincubation with 20 μM ISC, 60 min
Method: Striatal membranes were treated with inhibitor as follows.

[15] = target: T7, A1 receptors, rat striatum (Rattus norvegicus, UniProt P25099); assay: Competition binding vs [3H]PIA, rat striatal membranes
T7 construct: Striatal tissue was isolated by dissection of rabbit, bovine, and rat brain; tissue Pel-Freeze Biologicals Co; host or cells: rat striatal membranes (frozen brain)
T7 sequence (P25099 1-326): T1 sequence (P25099 1-326)

[16] = target: T2, rat striatal A2a receptors
[17] = system: locomotor activity in mice; assay: Locomotor activity in mice, open field (Digiscan activity monitor); format: in vivo, mouse; conditions: for locomotor stimulation, in words: mice
[18] = target: T8, A2a receptor, rat pheochromocytoma (PC12) cells (Rattus norvegicus, UniProt P30543); assay: biochemical; conditions: Table VI; read-out: Adenylate cyclase (KB), rat PC12 cells A2a
T8 construct: via an A2a receptor in rat pheochromocytoma (PC12) cell membranes; endogenous in cells; host or cells: PC12 cells (rat pheochromocytoma)

[19] = target: T5, A2a receptors, rat striatum; assay: Radioligand binding vs [3H]N-ethylcarboxamidoadenosine, rat striatum; set-up: Striatal tissue was isolated by dissection of rabbit, bovine, and rat brain; tissue Pel-Freeze Biologicals Co; host or cells: rat striatal membranes (frozen brain); conditions: Table VI; vs [3H]NECA; read-out: Inhibition of binding (Ki), rat striatum A2a
[20] = target: A1 receptor, rat adipocytes (Rattus norvegicus, UniProt P25099); assay: biochemical
[21] = target: T9, A2a receptor, human platelets (Homo sapiens, UniProt P29274); assay: Antagonism of NECA-elicited stimulation of adenylate cyclase, human platelets; format: biochemical
T9 construct: PC12) cell membranes or in human platelets; from tissue; host or cells: human platelets

[22] = system: locomotor activity in mice; conditions: postinjection (Baumgold et al.); cited from earlier work
Aqueous solubility = conditions: for solubility kinetic: water, 0.5% dmso, organic solvent or mixture
[23] = Table I, vs [3H]PIA (1 nM), rat A1 receptors, read-out: Ki (A1)
[24] = Table I, vs [3H]CGS21680 (5 nM), rat striatal A2 receptors, read-out: Ki (A2a)
[25] = Table VI, vs [3H]PIA, read-out: Inhibition of binding (Ki), rat cortex A1

T5 sequence (P30543 whole entry): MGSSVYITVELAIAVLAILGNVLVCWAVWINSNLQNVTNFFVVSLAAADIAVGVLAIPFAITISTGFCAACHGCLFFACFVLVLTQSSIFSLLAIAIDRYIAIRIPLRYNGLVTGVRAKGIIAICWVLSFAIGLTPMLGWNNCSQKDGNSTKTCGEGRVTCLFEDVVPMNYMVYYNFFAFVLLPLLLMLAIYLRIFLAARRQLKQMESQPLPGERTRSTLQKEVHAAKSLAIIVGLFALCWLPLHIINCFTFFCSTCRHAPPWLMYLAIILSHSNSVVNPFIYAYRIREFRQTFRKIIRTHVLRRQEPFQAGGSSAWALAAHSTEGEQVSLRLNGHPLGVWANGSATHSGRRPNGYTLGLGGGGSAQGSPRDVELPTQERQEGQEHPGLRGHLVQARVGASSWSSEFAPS
T2 sequence (P30543 whole entry): as above
Chain of A2a receptors, rabbit striatum (G1SVQ2 1-409): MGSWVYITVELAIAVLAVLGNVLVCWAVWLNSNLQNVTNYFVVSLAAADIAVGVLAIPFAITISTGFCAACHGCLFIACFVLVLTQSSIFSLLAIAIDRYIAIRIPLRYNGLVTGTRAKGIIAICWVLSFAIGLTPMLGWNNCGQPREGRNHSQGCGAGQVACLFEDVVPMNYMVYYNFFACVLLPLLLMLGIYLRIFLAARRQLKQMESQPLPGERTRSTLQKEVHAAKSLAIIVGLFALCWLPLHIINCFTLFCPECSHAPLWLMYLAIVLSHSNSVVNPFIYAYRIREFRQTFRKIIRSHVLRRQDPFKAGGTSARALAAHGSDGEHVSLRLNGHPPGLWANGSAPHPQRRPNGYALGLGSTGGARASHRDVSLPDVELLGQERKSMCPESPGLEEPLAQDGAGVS
T3 sequence (P47745 whole entry): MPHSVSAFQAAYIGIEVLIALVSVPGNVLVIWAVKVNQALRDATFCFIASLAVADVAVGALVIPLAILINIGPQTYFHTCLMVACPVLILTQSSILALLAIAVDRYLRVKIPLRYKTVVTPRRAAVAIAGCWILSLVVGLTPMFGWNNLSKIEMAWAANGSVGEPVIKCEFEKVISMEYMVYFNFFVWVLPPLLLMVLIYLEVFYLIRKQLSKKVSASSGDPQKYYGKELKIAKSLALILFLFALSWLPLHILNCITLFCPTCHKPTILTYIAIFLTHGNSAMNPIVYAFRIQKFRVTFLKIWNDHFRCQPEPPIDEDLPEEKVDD
T6 sequence (P34970 whole entry): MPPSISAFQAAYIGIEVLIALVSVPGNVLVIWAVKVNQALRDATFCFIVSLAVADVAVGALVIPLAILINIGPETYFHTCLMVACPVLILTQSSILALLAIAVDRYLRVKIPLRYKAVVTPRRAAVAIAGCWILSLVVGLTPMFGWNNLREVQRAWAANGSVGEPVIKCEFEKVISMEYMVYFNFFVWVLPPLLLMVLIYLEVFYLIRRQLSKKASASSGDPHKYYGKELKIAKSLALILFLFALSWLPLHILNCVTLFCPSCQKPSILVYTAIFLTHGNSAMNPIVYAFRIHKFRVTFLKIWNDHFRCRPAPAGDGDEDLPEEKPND
Chain of rabbit A2a receptors (G1SVQ2 1-409): as the sequence (G1SVQ2 1-409) above
Chain of A2a receptors, bovine striatum (E1BKU0 1-401): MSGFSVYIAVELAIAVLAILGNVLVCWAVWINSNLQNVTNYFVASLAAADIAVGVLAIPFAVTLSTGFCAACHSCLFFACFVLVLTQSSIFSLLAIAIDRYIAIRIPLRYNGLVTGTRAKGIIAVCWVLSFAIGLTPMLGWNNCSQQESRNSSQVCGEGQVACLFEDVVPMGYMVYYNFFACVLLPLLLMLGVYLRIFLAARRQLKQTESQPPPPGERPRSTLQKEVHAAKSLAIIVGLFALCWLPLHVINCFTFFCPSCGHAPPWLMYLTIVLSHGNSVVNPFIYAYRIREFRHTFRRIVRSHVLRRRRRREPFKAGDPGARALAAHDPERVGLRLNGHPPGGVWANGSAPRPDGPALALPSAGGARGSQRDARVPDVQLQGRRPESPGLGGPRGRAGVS
Chain of bovine A2a receptors (E1BKU0 1-401): as above
T4 sequence (P28190 whole entry): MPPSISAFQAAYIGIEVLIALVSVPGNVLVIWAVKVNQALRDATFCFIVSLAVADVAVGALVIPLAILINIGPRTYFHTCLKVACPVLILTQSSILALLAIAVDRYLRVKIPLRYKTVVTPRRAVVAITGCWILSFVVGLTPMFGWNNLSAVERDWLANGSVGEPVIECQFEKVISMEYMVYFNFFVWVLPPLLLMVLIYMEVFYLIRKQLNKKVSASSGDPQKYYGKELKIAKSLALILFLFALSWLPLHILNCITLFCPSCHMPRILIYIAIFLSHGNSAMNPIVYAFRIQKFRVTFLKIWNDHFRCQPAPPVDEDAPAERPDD
T9 sequence (P29274 whole entry): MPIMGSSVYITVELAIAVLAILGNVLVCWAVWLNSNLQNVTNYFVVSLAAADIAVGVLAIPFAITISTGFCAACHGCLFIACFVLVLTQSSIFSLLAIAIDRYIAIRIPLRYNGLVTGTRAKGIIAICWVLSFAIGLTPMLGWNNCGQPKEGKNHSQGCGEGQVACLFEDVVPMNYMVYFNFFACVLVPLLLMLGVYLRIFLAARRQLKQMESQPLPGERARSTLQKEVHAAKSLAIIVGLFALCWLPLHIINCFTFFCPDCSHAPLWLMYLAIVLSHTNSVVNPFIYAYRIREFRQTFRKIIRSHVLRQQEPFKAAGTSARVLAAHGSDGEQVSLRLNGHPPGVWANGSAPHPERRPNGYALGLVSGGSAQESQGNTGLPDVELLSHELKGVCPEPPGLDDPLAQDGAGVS
T8 sequence (P30543 whole entry): as the sequence (P30543 whole entry) above

Ki [3, 23]: 1930 nM
SMILES: C=CCn1c(=O)c2c(nc(/C=C/c3cc(OC)c(OC)c(OC)c3)n2C)n(CC=C)c1=O [Compound 46]
Ki [1]: 15 nM
Ki [2]: > 100000 nM

SMILES: Nc1nc2ccc(Cl)cc2n2c(-c3ccccc3)nnc12 [CP66,713]
selectivity A2a vs. A1 [4]: 12 fold
effect on A1 depression of locomotor activity (locomotor activity; in vivo, same dose): no effect on A1 depression of locomotor activity
antagonism of A2 depression of locomotor activity (locomotor activity; in vivo): partial antagonism of A2 depression of locomotor activity

Ki [3, 23]: 71 ± 11 nM
SMILES: CCCn1c(=O)c2[nH]c(/C=C/c3ccc(OC)c(OC)c3)nc2n(CCC)c1=O [Compound 52a]
Ki [1]: 6700 nM
Ki [2]: 1700 nM

Ki [5, 24]: 44 ± 19 nM
SMILES: CCCn1c(=O)c2[nH]c(/C=C/c3ccccc3)nc2n(CCC)c1=O [Compound 47]
Ki [1]: 26 nM
Ki [2]: 1800 nM
Ki (A2 receptors, rat brain): 85 nM

SMILES: Cn1c(=O)c2c(nc(/C=C/c3cccc(N=C=S)c3)n2C)n(C)c1=O [Compound 28e, 1,3,7-trimethyl-8-(3-isothiocyanatostyryl)xanthine]
IC50 [6]: 51400 nM
IC50 [7]: 63400 nM
IC50 [8]: 146 nM
Ki [8]: 111 nM
IC50 [9]: 413 ± 135 nM
Ki [9]: 347 ± 112 nM
IC50 [10]: 516 ± 64 nM
EC50 (bovine A2a receptors): 8000 nM
Ki [3]: 20300 nM
EC50 (rabbit A2a receptors): 10000 nM
Hill coefficients for displacement of [3H]CGS 21680 [11]: ~1
IC50 [12]: 75600 nM
IC50 [13]: 2700 nM
inhibition at 20 µM ([13]; 1 h, read-out: loss of specific [3H]CGS 21680 binding, preincubation with 20 μM ISC, rat): ~80%
inhibition at 2 µM ([13]; 2 h, read-out: loss of specific [3H]CGS 21680 binding at 2 h, 2 μM ISC, 25° C.): ~55%
loss of [3H]PIA binding [14]: 12±2.9%
Ki ([5]; Ki (A2a)): 111 ± 1 nM
IC50 ([15]; IC50 (A1), rat, vs [3H]PIA (1 nM)): 42600 nM
IC50 ([15]; IC50 at A1-receptors, rat striatum): 43000 nM
Ki ([15]; Ki value (A1), rat striatum, Table V footnote b): 20300 nM
Ki ([15]; Ki value at A1-receptors, rat striatum): 20000 nM
time for inhibition of 50% of final value at 2 h ([16]; 2 μM ISC, 25° C.): Approximately 3 min
regeneration of A2a-receptor binding ([16]; IBMX 100 μM overnight on ISC-treated membranes): did not regenerate any A2a -receptor binding

Ki [3, 23]: 2280 nM
SMILES: COc1cc(/C=C/c2nc3c([nH]2)c(=O)n(C)c(=O)n3C)cc(OC)c1OC [Compound 44a]
Ki [1]: 71 nM
Ki [2]: > 100000 nM

Ki [3, 23]: 9200 nM
SMILES: COc1cc(/C=C/c2nc3c(c(=O)n(C)c(=O)n3C)n2C)cc(OC)c1OC [Compound 44b, 1,3,7-trimethyl-8-(3,4,5-trimethoxy)-styryl-xanthine]
Ki [1]: 18 nM
Ki [2]: > 100000 nM

SMILES: CCNC(=O)[C@H]1O[C@@H](n2cnc3c(N)nc(NCCc4ccc(CCC(=O)NCCN)cc4)nc32)[C@H](O)[C@@H]1O [APEC, 2-[(2-aminoethylamino)-carbonylethylphenylethylamino]-5'-N-ethylcarboxamidoadenosine, reference compound]
ED50 for locomotor depression (locomotor activity; i.p., previously determined): 0.016 mg/kg
total distance traveled ([17]; APEC alone 16 μg/kg, n=13): 2277±229 cm/30 min
ED50 for locomotor depression elicited by APEC ([17]; following 1 mg/kg CSC): 0.19 mg/kg

SMILES: C#CCn1c(=O)c2c(ncn2C)n(C)c1=O [DMPX, 3,7-dimethyl-1-propargylxanthine]
Kb [18]: 9600 nM
Ki [3, 25]: 45000 nM
Behavioral stimulation ([17]; typical dose 10 (mg/kg, i.p.)): +++
Ki [19]: 16000 nM
Kb [20]: 94000 nM
Kb [21]: 4000 nM

SMILES: Cn1c(=O)c2[nH]c(C3CCCC3)nc2n(C)c1=O [CPT, 8-cyclopentyltheophylline, reference compound]
time until stimulatory effect disappears [22]: ≤ 20 min
Ki [3, 25]: 24 nM
locomotor stimulation, in words [17]: moderate, but transient, locomotor stimulation
Behavioral stimulation ([17]; typical dose 10 (mg/kg, i.p.)): ++

SMILES: CCCn1c(=O)c2c(nc(/C=C/c3cc(OC)cc(OC)c3)n2C)n(CCC)c1=O [Compound 53b, 1,3-Dipropyl-7-methyl-8-(3,5-dimethoxystyryl)xanthine]
apparent A1 affinity versus DMSO concentration ([3]; 0.5 and 1% DMSO): somewhat dependent on DMSO concentration
Ki [3, 23]: 2630 nM
selectivity relative to 52b [5]: 5 fold
apparent affinity at A2 receptors versus DMSO concentration ([5]; 0.5% to 6% DMSO): constant within the range of 0.5% to 6% DMSO
Ki ([5]; Ki value / affinity at A2 receptors): 24 nM and ≤ 50 nM
A1/A2a ratio ([5]; Table I, ratio of Ki values): 110
Ki [5, 24]: 24 ± 6 nM
A2-selectivity ([5]; rat brain binding, this study): 110 fold
solubility kinetic (Aqueous solubility; concentration above which compound did not remain dissolved): 10 µM (≈ 4.12 µg/mL)
solubility kinetic (Aqueous solubility; theoretical concentration beyond which UV absorption decreases (supersaturation)): 20 µM (≈ 8.25 µg/mL)

SMILES: Cn1c(=O)c2c(nc(/C=C/c3cccc(Cl)c3)n2C)n(C)c1=O [Compound 28a, 1,3,7-trimethyl-8-(3-chlorostyryl) xanthine]
increase in clockwise and anti-clockwise rotations [17]: 30-60%
effect on locomotor activity of concurrent administration ([17]; APEC 16 μg/kg with CSC 5 mg/kg): no effect on the locomotor activity
reversal of APEC-elicited locomotor depression ([17]; CSC 1 mg/kg i.p., APEC 16 μg/kg): nearly completely reverse the locomotor depression
total distance traveled ([17]; CSC 1.0 mg/kg with CPX […], n=9): 4861±243 cm/30 min
stimulation of locomotor activity over CSC alone ([17]; CSC 1.0 mg/kg with CPX […], p<0.001): 37%
total distance traveled ([17]; CSC 5 mg/kg alone, n=13): 4223±496 cm/30 min
increase in locomotor activity versus APEC alone ([17]; CSC 5 mg/kg with APEC 16 μg/kg): 73%
total distance traveled ([17]; CSC 5 mg/kg with APEC 16 μg/kg, n=14): 3949±284 cm/30 min
total distance traveled ([17]; CSC 5 mg/kg with CHA, n=8): 2029±250 cm/30 min
locomotor stimulation over vehicle control ([17]; CSC 5 mg/kg, 30 min): 22%
effect on locomotor depression elicited by CHA ([17]; CSC 5 mg/kg, CHA 100 μg/kg i.p.): no effect on locomotor depression
increase in locomotor activity versus control ([17]; CSC 5 mg/kg, last 10 minutes of 30 min): 56%
total distance traveled ([17]; CSC alone 1 mg/kg i.p., n=19): 3550±230 cm/30 min
increase in average distance per move ([17]; CSC with CPX): approximately 30%
locomotor stimulation, in words [17]: no significant effect on locomotor activity
Behavioral stimulation ([17]; typical dose 5 (mg/kg, i.p.)): +
solubility (Aqueous solubility; injection vehicle): < 1000 µg/mL
